Measured values: the NIST ThermoML archive (doi:10.1016/j.jct.2017.10.002)
Where “and” joins values, the source holds several entries; their conditions need not be identical. Identical values can stand only once. Numbers after ± are expanded uncertainties.

Assay: molar heat capacity at constant pressure
Details: 101.33 kPa, relaxation calorimetry

CCc1ncc[n-]1.CCc1ncc[n-]1.[Zn+2] [zinc(II) 2-ethylimidazolide]
molar heat capacity at constant pressure
Details	Crystal	Glass
20.19 K	17.81 ± 0.72 J/K/mol	–
20.5 K	16.98 ± 0.69 J/K/mol and 13.71 ± 0.56 J/K/mol	–
20.51 K	–	17.11 ± 0.69 J/K/mol
22.14 K	20.77 ± 0.84 J/K/mol	–
22.42 K	16.31 ± 0.66 J/K/mol	–
22.43 K	19.56 ± 0.8 J/K/mol	19.76 ± 0.8 J/K/mol
24.21 K	23.64 ± 0.96 J/K/mol	–
24.49 K	22.58 ± 0.92 J/K/mol and 19.45 ± 0.79 J/K/mol	–
24.5 K	–	22.96 ± 0.93 J/K/mol
25 K	24.79 ± 1 J/K/mol and 20.1 ± 0.82 J/K/mol and 23.3 ± 0.95 J/K/mol	23.65 ± 0.96 J/K/mol
26.43 K	26.91 ± 1.1 J/K/mol	–
26.75 K	22.61 ± 0.92 J/K/mol	–
26.76 K	25.8 ± 1 J/K/mol	–
26.77 K	–	26.23 ± 1.1 J/K/mol
28.91 K	30.23 ± 1.2 J/K/mol	–
29.23 K	26.38 ± 1.1 J/K/mol	–
29.24 K	29.64 ± 1.2 J/K/mol	–
29.25 K	–	30.22 ± 1.2 J/K/mol
30 K	31.85 ± 1.3 J/K/mol and 27.7 ± 1.1 J/K/mol and 30.79 ± 1.3 J/K/mol	31.35 ± 1.3 J/K/mol
31.62 K	34.05 ± 1.4 J/K/mol	–
31.94 K	30.76 ± 1.2 J/K/mol	34.68 ± 1.4 J/K/mol
31.95 K	33.91 ± 1.4 J/K/mol	–
34.58 K	38.37 ± 1.6 J/K/mol	–
34.9 K	38.58 ± 1.6 J/K/mol and 35.55 ± 1.4 J/K/mol	39.27 ± 1.6 J/K/mol
35 K	38.9 ± 1.6 J/K/mol and 35.64 ± 1.4 J/K/mol and 38.68 ± 1.6 J/K/mol	39.25 ± 1.6 J/K/mol
37.81 K	43 ± 1.7 J/K/mol	–
38.12 K	40.86 ± 1.7 J/K/mol	–
38.13 K	43.67 ± 1.8 J/K/mol	43.79 ± 1.8 J/K/mol
40 K	45.99 ± 1.9 J/K/mol and 43.91 ± 1.8 J/K/mol and 46.78 ± 1.9 J/K/mol	46.98 ± 1.9 J/K/mol
41.34 K	47.77 ± 1.9 J/K/mol	–
41.65 K	46.75 ± 1.9 J/K/mol	–
41.66 K	49.38 ± 2 J/K/mol	49.23 ± 2 J/K/mol
45 K	53.17 ± 2.2 J/K/mol and 52.4 ± 2.1 J/K/mol and 54.79 ± 2.2 J/K/mol	54.36 ± 2.2 J/K/mol
45.2 K	53.79 ± 2.2 J/K/mol	–
45.5 K	53.14 ± 2.2 J/K/mol	–
45.51 K	55.55 ± 2.3 J/K/mol	–
45.52 K	–	55.25 ± 2.2 J/K/mol
49.41 K	59.46 ± 2.4 J/K/mol	–
49.71 K	60.01 ± 2.4 J/K/mol	–
49.72 K	62.24 ± 2.5 J/K/mol	–
49.73 K	–	61.57 ± 2.5 J/K/mol
50 K	60.35 ± 2.5 J/K/mol and 60.38 ± 2.5 J/K/mol and 62.49 ± 2.5 J/K/mol	61.68 ± 2.5 J/K/mol
54.02 K	65.55 ± 2.7 J/K/mol	–
54.31 K	67.15 ± 2.7 J/K/mol	–
54.32 K	–	68.04 ± 2.8 J/K/mol
54.33 K	68.86 ± 2.8 J/K/mol	–
59.06 K	72.12 ± 2.9 J/K/mol	–
59.34 K	74.94 ± 3 J/K/mol	–
59.35 K	76.53 ± 3.1 J/K/mol	75.28 ± 3.1 J/K/mol
60 K	73.51 ± 3 J/K/mol and 75.98 ± 3.1 J/K/mol and 77.48 ± 3.1 J/K/mol	76.22 ± 3.1 J/K/mol
64.56 K	79.28 ± 3.2 J/K/mol	–
64.85 K	83.06 ± 3.4 J/K/mol	82.76 ± 3.4 J/K/mol
64.86 K	84.44 ± 3.4 J/K/mol	–
70 K	86.38 ± 3.5 J/K/mol and 90.67 ± 3.7 J/K/mol and 92.04 ± 3.7 J/K/mol	89.94 ± 3.7 J/K/mol
70.56 K	86.79 ± 3.5 J/K/mol	–
70.85 K	91.72 ± 3.7 J/K/mol	–
70.86 K	93.1 ± 3.8 J/K/mol	90.79 ± 3.7 J/K/mol
77.13 K	95.12 ± 3.9 J/K/mol	–
77.42 K	100.73 ± 4.1 J/K/mol	99.43 ± 4 J/K/mol
77.43 K	102.26 ± 4.2 J/K/mol	–
80 K	98.35 ± 4 J/K/mol and 103.93 ± 4.2 J/K/mol and 105.47 ± 4.3 J/K/mol	102.42 ± 4.2 J/K/mol
84.27 K	104 ± 4.2 J/K/mol	–
84.6 K	109.85 ± 4.5 J/K/mol	–
84.61 K	111.93 ± 4.5 J/K/mol	108.29 ± 4.4 J/K/mol
90 K	109.29 ± 4.4 J/K/mol and 115.76 ± 4.7 J/K/mol and 117.61 ± 4.8 J/K/mol	113.66 ± 4.6 J/K/mol
92.13 K	112.13 ± 4.5 J/K/mol	–
92.46 K	118.78 ± 4.8 J/K/mol	116.45 ± 4.7 J/K/mol
92.47 K	120.62 ± 4.9 J/K/mol	–
100 K	119.26 ± 4.8 J/K/mol and 126.37 ± 5.1 J/K/mol and 128.56 ± 5.2 J/K/mol	123.8 ± 5 J/K/mol
100.71 K	118.91 ± 4.8 J/K/mol	–
101.03 K	127.27 ± 5.2 J/K/mol	–
101.04 K	129.19 ± 5.2 J/K/mol	124.6 ± 5.1 J/K/mol
110 K	128.39 ± 5.2 J/K/mol and 136.02 ± 5.5 J/K/mol and 138.51 ± 5.6 J/K/mol	133.08 ± 5.4 J/K/mol
110.81 K	128.62 ± 5.2 J/K/mol	–
111.15 K	136.95 ± 5.6 J/K/mol	133.87 ± 5.4 J/K/mol
111.16 K	139.25 ± 5.7 J/K/mol	–
120 K	136.82 ± 5.6 J/K/mol and 144.91 ± 5.9 J/K/mol and 147.68 ± 6 J/K/mol	141.69 ± 5.8 J/K/mol
120.85 K	137.96 ± 5.6 J/K/mol	–
121.21 K	146.05 ± 5.9 J/K/mol	142.99 ± 5.8 J/K/mol
121.23 K	149.18 ± 6.1 J/K/mol	–
130 K	144.69 ± 5.9 J/K/mol and 153.25 ± 6.2 J/K/mol and 156.24 ± 6.3 J/K/mol	149.79 ± 6.1 J/K/mol
130.99 K	145.58 ± 5.9 J/K/mol	–
131.26 K	–	150.5 ± 6.1 J/K/mol
131.27 K	153.88 ± 6.2 J/K/mol	–
131.28 K	157.12 ± 6.4 J/K/mol	–
140 K	152.15 ± 6.2 J/K/mol and 161.18 ± 6.5 J/K/mol and 164.35 ± 6.7 J/K/mol	157.54 ± 6.4 J/K/mol
141.06 K	152.68 ± 6.2 J/K/mol	–
141.38 K	–	158.36 ± 6.4 J/K/mol
141.4 K	162.12 ± 6.6 J/K/mol	–
141.42 K	164.9 ± 6.7 J/K/mol	–
150 K	159.28 ± 6.5 J/K/mol and 168.81 ± 6.9 J/K/mol and 172.14 ± 7 J/K/mol	165.02 ± 6.7 J/K/mol
151.12 K	159.89 ± 6.5 J/K/mol	–
151.43 K	–	166.3 ± 6.8 J/K/mol
151.46 K	170.21 ± 6.9 J/K/mol	–
151.47 K	173.16 ± 7 J/K/mol	–
160 K	166.18 ± 6.8 J/K/mol and 176.23 ± 7.2 J/K/mol and 179.71 ± 7.3 J/K/mol	172.32 ± 7 J/K/mol
161.25 K	166.65 ± 6.8 J/K/mol	–
161.56 K	–	173.36 ± 7 J/K/mol
161.59 K	177.25 ± 7.2 J/K/mol	–
161.61 K	180.61 ± 7.3 J/K/mol	–
170 K	172.92 ± 7 J/K/mol and 183.53 ± 7.5 J/K/mol and 187.14 ± 7.6 J/K/mol	179.51 ± 7.3 J/K/mol
171.35 K	173.33 ± 7 J/K/mol	–
171.6 K	–	180.21 ± 7.3 J/K/mol
171.65 K	184.06 ± 7.5 J/K/mol	–
171.67 K	188.03 ± 7.6 J/K/mol	–
180 K	179.56 ± 7.3 J/K/mol and 190.75 ± 7.8 J/K/mol and 194.49 ± 7.9 J/K/mol	186.63 ± 7.6 J/K/mol
181.43 K	180.52 ± 7.3 J/K/mol	–
181.69 K	–	187.69 ± 7.6 J/K/mol
181.74 K	192.24 ± 7.8 J/K/mol	–
181.77 K	196.44 ± 8 J/K/mol	–
190 K	186.14 ± 7.6 J/K/mol and 197.94 ± 8 J/K/mol and 201.82 ± 8.2 J/K/mol	193.72 ± 7.9 J/K/mol
191.5 K	187.51 ± 7.6 J/K/mol	–
191.77 K	–	195.38 ± 7.9 J/K/mol
191.83 K	199.47 ± 8.1 J/K/mol	–
191.86 K	203.36 ± 8.3 J/K/mol	–
200 K	192.7 ± 7.8 J/K/mol and 205.14 ± 8.3 J/K/mol and 209.16 ± 8.5 J/K/mol	200.81 ± 8.2 J/K/mol
201.6 K	194.57 ± 7.9 J/K/mol	–
201.91 K	–	202.56 ± 8.2 J/K/mol
201.98 K	207.07 ± 8.4 J/K/mol	–
202.01 K	211.73 ± 8.6 J/K/mol	–
210 K	199.27 ± 8.1 J/K/mol and 212.36 ± 8.6 J/K/mol and 216.56 ± 8.8 J/K/mol	207.92 ± 8.4 J/K/mol
211.69 K	200.92 ± 8.2 J/K/mol	–
211.98 K	–	209.72 ± 8.5 J/K/mol
212.06 K	214.46 ± 8.7 J/K/mol	–
212.09 K	218.97 ± 8.9 J/K/mol	–
220 K	205.88 ± 8.4 J/K/mol and 219.65 ± 8.9 J/K/mol and 224.03 ± 9.1 J/K/mol	215.06 ± 8.7 J/K/mol
221.78 K	207.56 ± 8.4 J/K/mol	–
221.99 K	–	216.74 ± 8.8 J/K/mol
222.09 K	221.43 ± 9 J/K/mol	–
222.12 K	225.68 ± 9.2 J/K/mol	–
230 K	212.55 ± 8.6 J/K/mol and 227.01 ± 9.2 J/K/mol and 231.6 ± 9.4 J/K/mol	222.25 ± 9 J/K/mol
231.87 K	213.47 ± 8.7 J/K/mol	–
232.05 K	–	223.82 ± 9.1 J/K/mol
232.17 K	228.3 ± 9.3 J/K/mol	–
232.21 K	233.03 ± 9.5 J/K/mol	–
240 K	219.29 ± 8.9 J/K/mol and 234.46 ± 9.5 J/K/mol and 239.29 ± 9.7 J/K/mol	229.49 ± 9.3 J/K/mol
241.95 K	220.69 ± 9 J/K/mol	–
242.11 K	–	230.23 ± 9.3 J/K/mol
242.25 K	235.6 ± 9.6 J/K/mol	–
242.28 K	240.2 ± 9.8 J/K/mol	–
250 K	226.12 ± 9.2 J/K/mol and 242.01 ± 9.8 J/K/mol and 247.11 ± 10 J/K/mol	236.79 ± 9.6 J/K/mol
252.04 K	227.71 ± 9.2 J/K/mol	–
252.26 K	–	238.21 ± 9.7 J/K/mol
252.41 K	243.81 ± 9.9 J/K/mol	–
252.44 K	248.76 ± 10 J/K/mol	–
260 K	233.06 ± 9.5 J/K/mol and 249.68 ± 10 J/K/mol and 255.08 ± 10 J/K/mol	244.16 ± 9.9 J/K/mol
262.15 K	234.66 ± 9.5 J/K/mol	–
262.32 K	–	245.55 ± 10 J/K/mol
262.49 K	251.06 ± 10 J/K/mol	–
262.53 K	256.2 ± 10 J/K/mol	–
270 K	240.1 ± 9.8 J/K/mol and 257.46 ± 10 J/K/mol and 263.21 ± 11 J/K/mol	251.6 ± 10 J/K/mol
272.26 K	239.9 ± 9.7 J/K/mol	–
272.38 K	–	253.18 ± 10 J/K/mol
272.57 K	259.14 ± 11 J/K/mol	–
272.61 K	264.93 ± 11 J/K/mol	–
273.15 K	242.35 ± 9.8 J/K/mol and 259.94 ± 11 J/K/mol and 265.8 ± 11 J/K/mol	253.96 ± 10 J/K/mol
280 K	247.27 ± 10 J/K/mol and 265.38 ± 11 J/K/mol and 271.5 ± 11 J/K/mol	259.1 ± 11 J/K/mol
282.33 K	249.22 ± 10 J/K/mol	–
282.34 K	–	261.68 ± 11 J/K/mol
282.56 K	268.2 ± 11 J/K/mol	–
282.6 K	274.43 ± 11 J/K/mol	–
290 K	254.56 ± 10 J/K/mol and 273.43 ± 11 J/K/mol and 279.96 ± 11 J/K/mol	266.68 ± 11 J/K/mol
292.42 K	254.66 ± 10 J/K/mol	–
292.48 K	–	268.78 ± 11 J/K/mol
292.71 K	275.78 ± 11 J/K/mol	–
292.77 K	282.45 ± 11 J/K/mol	–
298.15 K	260.6 ± 11 J/K/mol and 280.09 ± 11 J/K/mol and 287 ± 12 J/K/mol	272.9 ± 11 J/K/mol
300 K	261.99 ± 11 J/K/mol and 281.62 ± 11 J/K/mol and 288.61 ± 12 J/K/mol	274.31 ± 11 J/K/mol
302.52 K	265.92 ± 11 J/K/mol	–
302.54 K	–	275.95 ± 11 J/K/mol
302.81 K	283.82 ± 12 J/K/mol	–
302.88 K	291.43 ± 12 J/K/mol	–
